Results on 1 compound are retold here after ChEMBL document CHEMBL1146976, “Radanamycin, a macrocyclic chimera of radicicol and geldanamycin” (Bioorg Med Chem Lett, 2006).

As usually defined, the IC50 is the point on the concentration scale where inhibition reaches its midpoint. Lower therefore signals inhibition by little substance.

One experiment relates to MCF7. Description: Antiproliferative activity against human MCF7 cells. The class given is functional, cell-based.
Experiment [1] deals with Heat shock protein HSP90 (Homo sapiens) (UniProt P07900+P08238). Description: Inhibition of Hsp90 assessed by degradation of client proteins Her2 and Akt. The experiment is classed as protein assay.

Molecules are shown by their SMILES. The source made the active and inactive calls. The calls are words filed in the database; no cut-off is given here.

In the experiment with MCF7, `COc1c(O)cc2c(O)c1CC(C)OC(=O)c1c(O)cc(O)c(Cl)c1CCC(=O)N2` (configuration not stated) [RADANAMYCIN] returned a concentration for half-maximal inhibition (IC50) of 1.2 µM. For the same compound, the result in experiment [1] was Active.
